Results from patent US9328099B2, “Cyanomethylpyrazole carboxamides as janus kinase inhibitors” (Merck Sharp & Dohme Corp., priority 2011, dated 2016).

What was measured:
JAK1 = JAK1 (Homo sapiens (Human), UniProt P23458); assay: Jak Biochemical HTRF Assay, JAK1; conditions: HTRF biochemical assay, GST-tagged catalytic domain; top concentration tested […]; read-out: JAK1 IC50
Excerpt: (§1) Jak Biochemical HTRF Assay Protocol
(§2) Subsequent reagent additions employed an Agilent Bravo.

JAK2 = JAK2 (Homo sapiens (Human), UniProt O60674); assay: Jak Biochemical HTRF Assay, JAK2; conditions: HTRF biochemical assay, GST-tagged catalytic domain; top concentration tested […]
Excerpt: as §1, §2

JAK1, sequence (P23458 875-1153): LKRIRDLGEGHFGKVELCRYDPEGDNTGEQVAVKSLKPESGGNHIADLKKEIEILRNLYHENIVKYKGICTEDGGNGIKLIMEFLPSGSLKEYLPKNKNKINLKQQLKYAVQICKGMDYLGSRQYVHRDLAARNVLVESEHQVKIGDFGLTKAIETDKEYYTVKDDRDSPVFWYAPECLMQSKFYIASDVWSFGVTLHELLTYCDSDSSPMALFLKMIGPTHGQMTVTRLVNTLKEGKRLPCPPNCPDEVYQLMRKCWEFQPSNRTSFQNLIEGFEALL
JAK2, sequence (O60674 849-1124): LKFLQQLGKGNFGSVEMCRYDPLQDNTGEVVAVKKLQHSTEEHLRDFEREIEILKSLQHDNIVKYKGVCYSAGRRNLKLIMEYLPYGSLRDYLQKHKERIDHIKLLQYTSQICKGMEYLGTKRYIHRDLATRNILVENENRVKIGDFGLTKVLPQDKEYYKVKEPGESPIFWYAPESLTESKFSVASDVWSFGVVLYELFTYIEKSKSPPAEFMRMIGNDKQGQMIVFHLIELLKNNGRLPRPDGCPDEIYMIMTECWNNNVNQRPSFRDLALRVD

Row | SMILES | IC50 (JAK1) [nM] | IC50 (JAK2) [nM]
1 | Cc1cc(N2CCC(CC#N)(n3cc(C(N)=O)c(Nc4ccc(F)cc4)n3)CC2)ccc1F [Example 3-42, 1-[4-(cyanomethyl)-1-(4-fluoro-3-methylphenyl)piperidin-4-yl]-3-[(4-fluorophenyl)amino]-1H-pyrazole-4-carboxamide] | 12 | 287
2 | Cc1cccc(N2CCC(CC#N)(n3cc(C(N)=O)c(Nc4ccc(F)cc4)n3)CC2)c1F [Example 3-43, 1-[4-(cyanomethyl)-1-(2-fluoro-3-methylphenyl)piperidin-4-yl]-3-[(4-fluorophenyl)amino]-1H-pyrazole-4-carboxamide] | 10 | 295
3 | N#CCC1(n2cc(C(N)=O)c(Nc3ccc(F)cc3)n2)CCN(c2cc(F)ccn2)CC1 [Example 3-44, 1-[4-(cyanomethyl)-1-(4-fluoropyridin-2-yl)piperidin-4-yl]-3-[(4-fluorophenyl)amino]-1H-pyrazole-4-carboxamide] | 0.2 | 6
4 | N#CCC1(n2cc(C(N)=O)c(Nc3ccc(F)cc3)n2)CCN(c2ccc(F)c(F)c2)CC1 [Example 3-45, 1-[4-(cyanomethyl)-1-(3,4-difluorophenyl)piperidin-4-yl]-3-[(4-fluorophenyl)amino]-1H-pyrazole-4-carboxamide] | 2 | 70
5 | N#CCC1(n2cc(C(N)=O)c(Nc3ccc(F)cc3)n2)CCN(c2ccncc2)CC1 [Example 3-46, 1-[4-(cyanomethyl)-1-pyridin-4-ylpiperidin-4-yl]-3-[(4-fluorophenyl)amino]-1H-pyrazole-4-carboxamide] | 3 | 78
6 | Cc1ncncc1N1CCC(CC#N)(n2cc(C(N)=O)c(Nc3ccc(F)cc3)n2)CC1 [Example 3-47, 1-[4-(cyanomethyl)-1-(4-methylpyrimidin-5-yl)piperidin-4-yl]-3-[(4-fluorophenyl)amino]-1H-pyrazole-4-carboxamide] | 13 | 181
7 | Cc1cncc(N2CCC(CC#N)(n3cc(C(N)=O)c(Nc4ccc(F)cc4)n3)CC2)c1 [Example 3-48, 1-[4-(cyanomethyl)-1-(5-methylpyridin-3-yl)piperidin-4-yl]-3-[(4-fluorophenyl)amino]-1H-pyrazole-4-carboxamide] | 1 | 26
8 | CC(C)(O)Cc1cccc(N2CCC(CC#N)(n3cc(C(N)=O)c(Nc4ccc(F)cc4)n3)CC2)n1 [Example 3-49, 1-{4-(cyanomethyl)-1-[6-(2-hydroxy-2-methylpropyl)pyridin-2-yl]piperidin-4-yl}-3-[(4-fluorophenyl)amino]-1H-pyrazole-4-carboxamide] | 5 | 147
9 | N#CCC1(n2cc(C(N)=O)c(Nc3ccc(F)cc3)n2)CCN(c2cccc(CF)n2)CC1 [Example 3-50, 1-{4-(cyanomethyl)-1-[6-(fluoromethyl)pyridin-2-yl]piperidin-4-yl}-3-[(4-fluorophenyl)amino]-1H-pyrazole-4-carboxamide] | 3 | 39
10 | N#CCC1(n2cc(C(N)=O)c(Nc3ccc(F)cc3)n2)CCN(c2cccnc2F)CC1 [Example 3-51, 1-[4-(cyanomethyl)-1-(2-fluoropyridin-3-yl)piperidin-4-yl]-3-[(4-fluorophenyl)amino]-1H-pyrazole-4-carboxamide] | 0.06 | 0.6
11 | Cc1ccc(N2CCC(CC#N)(n3cc(C(N)=O)c(Nc4ccc(F)cc4)n3)CC2)cn1 [Example 3-52, 1-[4-(cyanomethyl)-1-(6-methylpyridin-3-yl)piperidin-4-yl]-3-[(4-fluorophenyl)amino]-1H-pyrazole-4-carboxamide] | 0.4 | 8
12 | COc1ccc(N2CCC(CC#N)(n3cc(C(N)=O)c(Nc4ccc(F)cc4)n3)CC2)cn1 [Example 3-53, 1-[4-(cyanomethyl)-1-(6-methoxypyridin-3-yl)piperidin-4-yl]-3-[(4-fluorophenyl)amino]-1H-pyrazole-4-carboxamide] | 0.4 | 9
13 | N#CCC1(n2cc(C(N)=O)c(Nc3ccc(F)cc3)n2)CCN(c2cccc(F)n2)CC1 [Example 3-54, 1-[4-(cyanomethyl)-1-(6-fluoropyridin-2-yl)piperidin-4-yl]-3-[(4-fluorophenyl)amino]-1H-pyrazole-4-carboxamide] | 0.3 | 4
14 | N#CCC1(n2cc(C(N)=O)c(Nc3ccc(F)cc3)n2)CCN(c2cc(C(F)(F)F)ccn2)CC1 [Example 3-55, 1-{4-(cyanomethyl)-1-[4-(trifluoromethyl)pyridin-2-yl]piperidin-4-yl}-3-[(4-fluorophenyl)amino]-1H-pyrazole-4-carboxamide] | 1 | 75
15 | Cc1cc(N2CCC(CC#N)(n3cc(C(N)=O)c(Nc4ccc(F)cc4)n3)CC2)cnc1F [Example 3-56, 1-[4-(cyanomethyl)-1-(6-fluoro-5-methylpyridin-3-yl)piperidin-4-yl]-3-[(4-fluorophenyl)amino]-1H-pyrazole-4-carboxamide] | 1 | 23
16 | CC(C)(C)OC(=O)N1CCC(CC#N)(n2cc(C(N)=O)c(Nc3ccc(S(C)(=O)=O)cc3)n2)CC1 [Example 4-1, tert-Butyl 4-(4-carbamoyl-3-{[4-(methylsulfonyl)phenyl]amino}-1H-pyrazol-1-yl)-4-(cyanomethyl)piperidine-1-carboxylate] | 0.1 | 1
17 | CC(C)OC(=O)c1ccc(Nc2nn(C3(CC#N)CCN(C(=O)OC(C)(C)C)CC3)cc2C(N)=O)cc1 [Example 4-2, tert-butyl 4-[4-carbamoyl-3-({4-[(1-methylethoxy)carbonyl]phenyl}amino)-1H-pyrazol-1-yl]-4-(cyanomethyl)piperidine-1-carboxylate] | 2 | 20
18 | CC(C)(C)OC(=O)N1CCC(CC#N)(n2cc(C(N)=O)c(Nc3cccc(Cn4ccnc4)c3)n2)CC1 [Example 4-3, tert-butyl 4-(4-carbamoyl-3-{[3-(1H-imidazol-1-ylmethyl)phenyl]amino}-1H-pyrazol-1-yl)-4-(cyanomethyl)piperidine-1-carboxylate] | 0.6 | 11
19 | N#CCC1(n2cc(C(N)=O)c(Nc3cccc(Cn4nnc5ccccc54)c3)n2)CCN(C(=O)OCC(F)(F)F)CC1 [Example 4-4, 2,2,2-trifluoroethyl 4-(3-{[3-(1H-benzotriazol-1-ylmethyl)phenyl]amino}-4-carbamoyl-1H-pyrazol-1-yl)-4-(cyanomethyl)piperidine-1-carboxylate] | 0.5 | 23
20 | CC(C)(C)OC(=O)N1CCC(CC#N)(n2cc(C(N)=O)c(Nc3cnc(C#N)nc3)n2)CC1 [Example 4-6, tert-butyl 4-{4-carbamoyl-3-[(2-cyanopyrimidin-5-yl)amino]-1H-pyrazol-1-yl}-4-(cyanomethyl)piperidine-1-carboxylate] | 3 | 38
21 | N#CCC1(n2cc(C(N)=O)c(Nc3ccc(F)cc3)n2)CCS(=O)(=O)CC1 [Example 8, 1-(4-(Cyanomethyl)-1,1-dioxidotetrahydro-2H-thiopyran-4-yl)-3-((4-fluorophenyl)amino)-1H-pyrazole-4-carboxamide] | 50 | 813

Next, values leading:

Row | IC50 (JAK1) [nM] | IC50 (JAK2) [nM] | SMILES
22 | 34 | 162 | CC(C#N)C1(n2cc(C(N)=O)c(Nc3ccc(F)cc3)n2)CCN(C(=O)OC(C)(C)C)CC1 (stereo not shown) [Example 5-1, tert-Butyl 4-(4-carbamoyl-3-((4-fluorophenyl)amino)-1H-pyrazol-1-yl)-4-(1-cyanoethyl)piperidine-1-carboxylate]
23 | 271 | 738 | CC(C)(C)OC(=O)N1CCC(C(C#N)C2CC2)(n2cc(C(N)=O)c(Nc3ccc(F)cc3)n2)CC1 (stereo not shown) [Example 5-2, tert-butyl 4-{4-carbamoyl-3-[(4-fluorophenyl)amino]-1H-pyrazol-1-yl}-4-[cyano(cyclopropyl)methyl] piperidine-1-carboxylate]
24 | 7 | 48 | N#CCC1(n2cc(C(N)=O)c(Nc3ccc(F)cc3)n2)CCC2(CC1)OCCO2 [Example 6-6, 1-[8-(cyanomethyl)-1,4-dioxaspiro[4.5]dec-8-yl]-3-[(4-fluorophenyl)amino]-1H-pyrazole-4-carboxamide]
25 | 19 | 206 | CS(=O)(=O)c1ccc(Nc2nn(C3(CC#N)CCC4(CC3)OCCO4)cc2C(N)=O)cc1 [Example 6-7, 1-[8-(cyanomethyl)-1,4-dioxaspiro[4.5]dec-8-yl]-3-{[4-(methylsulfonyl)phenyl]amino}-1H-pyrazole-4-carboxamide]
26 | 0.2 | 5 | CC(C)(C)OC(=O)N1CCC(CC#N)(n2cc(C(N)=O)c(Nc3ccnc(F)c3)n2)CC1 [Example 9-1, tert-Butyl 4-{4-carbamoyl-3-[(2-fluoropyridin-4-yl)amino]-1H-pyrazol-1-yl}-4-(cyanomethyl)piperidine-1-carboxylate]
27 | 0.3 | 9 | COC(=O)c1ccc(Nc2nn(C3(CC#N)CCN(C(=O)OC(C)(C)C)CC3)cc2C(N)=O)cc1 [Example 9-2, tert-butyl 4-(4-carbamoyl-3-{[4-(methoxycarbonyl)phenyl]amino}-1H-pyrazol-1-yl)-4-(cyanomethyl)piperidine-1-carboxylate]
28 | 0.8 | 21 | CC(C)(C)OC(=O)N1CCC(CC#N)(n2cc(C(N)=O)c(Nc3ccc(F)cc3)n2)CC1 [Example 9-3, tert-butyl 4-{4-carbamoyl-3-[(4-fluorophenyl)amino]-1H-pyrazol-1-yl}-4-(cyanomethyl)piperidine-1-carboxylate]
29 | 0.1 | 2 | CNC(=O)c1ccc(Nc2nn(C3(CC#N)CCN(C(=O)OC(C)(C)C)CC3)cc2C(N)=O)cc1 [Example 9-4, tert-Butyl 4-[4-(aminocarbonyl)-3-({4-[(methylamino)carbonyl]phenyl}amino)-1H-pyrazol-1-yl]-4-(cyanomethyl)piperidine-1-carboxylate]
